Activity calls are given as the source filed them. The rule behind the calls is not given here.
Experiments:
[1] = molecular target: Diacylglycerol lipase-beta (Mus musculus) (UniProt Q91WC9); experiment: in situ ABHD6 versus DAGLb inhibition – cell-based, gel-based competitive ABPP, fluorescence, selectivity assay for DAGLb inhibitor project, dose response (AID 602335); conditions: DAGLb
[2] = molecular target: Monoacylglycerol lipase ABHD6 (Mus musculus) (UniProt Q8R2Y0); experiment: as above
Chain of Monoacylglycerol lipase ABHD6 (Mus musculus) (Q8R2Y0 whole entry, looked up): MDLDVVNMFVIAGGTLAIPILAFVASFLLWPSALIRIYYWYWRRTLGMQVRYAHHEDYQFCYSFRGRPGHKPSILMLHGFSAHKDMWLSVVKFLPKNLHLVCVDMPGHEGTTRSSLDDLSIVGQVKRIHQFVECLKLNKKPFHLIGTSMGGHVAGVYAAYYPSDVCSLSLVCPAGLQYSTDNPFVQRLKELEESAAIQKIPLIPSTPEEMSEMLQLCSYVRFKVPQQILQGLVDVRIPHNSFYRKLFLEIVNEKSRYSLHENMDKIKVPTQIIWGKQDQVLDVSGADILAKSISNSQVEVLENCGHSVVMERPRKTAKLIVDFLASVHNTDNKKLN

Chain of Diacylglycerol lipase-beta (Mus musculus) (Q91WC9 whole entry, looked up): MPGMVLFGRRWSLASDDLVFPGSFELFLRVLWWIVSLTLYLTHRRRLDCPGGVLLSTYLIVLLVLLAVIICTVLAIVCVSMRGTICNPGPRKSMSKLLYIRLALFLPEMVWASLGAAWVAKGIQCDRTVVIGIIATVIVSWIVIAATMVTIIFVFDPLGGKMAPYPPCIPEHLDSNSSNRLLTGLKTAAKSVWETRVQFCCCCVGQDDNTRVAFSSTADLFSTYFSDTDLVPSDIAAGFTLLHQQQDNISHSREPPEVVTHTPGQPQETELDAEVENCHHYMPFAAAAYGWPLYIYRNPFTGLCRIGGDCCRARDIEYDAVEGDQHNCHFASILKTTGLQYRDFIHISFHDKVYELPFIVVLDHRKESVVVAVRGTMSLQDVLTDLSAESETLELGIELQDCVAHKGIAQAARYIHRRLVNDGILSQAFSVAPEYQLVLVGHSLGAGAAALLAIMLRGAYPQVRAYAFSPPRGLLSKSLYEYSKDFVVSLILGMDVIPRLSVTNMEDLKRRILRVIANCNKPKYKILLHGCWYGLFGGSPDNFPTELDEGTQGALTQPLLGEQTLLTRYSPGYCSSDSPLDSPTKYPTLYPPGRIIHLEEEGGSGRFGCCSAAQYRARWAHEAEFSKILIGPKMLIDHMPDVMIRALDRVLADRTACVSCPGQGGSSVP

IC50 [1]	IC50 [2]	SMILES
> 0.1 µM (inactive)		O=C(O)c1cccc(-c2ccc(-c3cn(C(=O)N4CCCCC4Cc4ccccc4)nn3)cc2)c1 (stereo unspecified)
> 0.1 µM (inactive)		O=C(N1CCCCC1c1ccccc1)n1cc(-c2ccc(-c3cccc(CO)c3)cc2)nn1 (stereo unspecified)
> 0.1 µM (inactive)	0.0013 µM	COc1ccc(-c2ccc(-c3cn(C(=O)N4CCCCC4c4ccccc4)nn3)cc2)cc1 (stereo unspecified)
> 0.1 µM (inactive)	0.00017 µM	O=C(N1CCCCC1c1ccccc1)n1cc(-c2ccc(-c3ccccc3)cc2)nn1 (stereo unspecified)

Reference: PubChem BioAssay AID602335 (The Scripps Research Institute Molecular Screening Center, 2012)
